The source made the active and inactive calls. The calls are words filed in the database; no cut-off is given here.
Experiments:
[1] = biological target: T1, Solute carrier family 15 member 1 (Homo sapiens, UniProt P46059); assay: Substrate activity at PEPT1 in human Caco-2 cells assessed as inhibition of Gly-Sar substrate uptake by UPLC-MS/MS analysis; type: cell-based; details: for inhibition (INH): human, caco-2
T1 sequence (P46059 whole entry): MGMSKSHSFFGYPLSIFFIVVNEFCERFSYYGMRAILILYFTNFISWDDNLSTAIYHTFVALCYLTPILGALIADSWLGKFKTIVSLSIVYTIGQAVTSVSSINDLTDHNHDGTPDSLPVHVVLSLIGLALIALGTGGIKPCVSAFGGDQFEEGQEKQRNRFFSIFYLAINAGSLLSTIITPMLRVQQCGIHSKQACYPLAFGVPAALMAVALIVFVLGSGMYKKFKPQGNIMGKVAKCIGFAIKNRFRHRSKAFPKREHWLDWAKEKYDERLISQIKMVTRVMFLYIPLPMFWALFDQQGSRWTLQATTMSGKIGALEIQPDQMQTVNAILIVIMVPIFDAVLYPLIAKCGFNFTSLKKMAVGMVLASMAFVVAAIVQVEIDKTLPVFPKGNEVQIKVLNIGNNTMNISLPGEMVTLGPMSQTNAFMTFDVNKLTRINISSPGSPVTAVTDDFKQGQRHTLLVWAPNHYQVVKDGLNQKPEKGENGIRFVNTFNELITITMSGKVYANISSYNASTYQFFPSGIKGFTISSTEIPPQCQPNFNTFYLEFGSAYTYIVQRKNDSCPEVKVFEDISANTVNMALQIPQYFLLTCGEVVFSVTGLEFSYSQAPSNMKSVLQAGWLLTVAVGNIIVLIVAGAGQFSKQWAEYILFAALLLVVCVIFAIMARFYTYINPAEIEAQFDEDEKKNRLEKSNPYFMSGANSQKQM

Mus musculus [2] = assay: Anti-colitis activity against DSS-induced colitis in C57BL/6 mouse model assessed as increase in colon length at 25 mg/kg, po administered via gavage twice daily for 10 days; type: functional, organism-based; details: time 10.0 day
[3] = Chemical stability in phosphate buffer at pH 6.8 assessed as half life measured up to 12 hrs by HPLC analysis; type: physicochemical
[4] = Metabolic stability in healthy C57BL/6 mouse liver assessed as half life measured up to 12 hrs by HPLC analysis; type: ADME, tissue-based
[5] = Metabolic stability in DSS-induced C57BL/6 mouse jejunum assessed as half life measured up to 12 hrs by HPLC analysis; type: ADME, tissue-based
[6] = Metabolic stability in DSS-induced C57BL/6 mouse colon assessed as half life measured up to 12 hrs by HPLC analysis; type: ADME, tissue-based
[7] = Chemical stability in 0.1 M HCl at pH 1.2 assessed as half life measured up to 12 hrs by HPLC analysis; type: physicochemical
[8] = Metabolic stability in healthy C57BL/6 mouse colon assessed as half life measured up to 12 hrs by HPLC analysis; type: ADME, tissue-based
[9] = AUC (0 to 6 hrs) in DSS-induced colitis C57BL/6 mouse model at 25 mg/kg, po measured up to 6 hrs by UPLC-MS/MS analysis; type: ADME, organism-based; parameters: route oral, dose 25 mg/kg, time <=6; details: in vivo
[10] = Chemical stability in acetate buffer at pH 4.5 assessed as half life measured up to 12 hrs by HPLC analysis; type: physicochemical
[11] = Chemical stability in phosphate buffer at pH 7.2 assessed as half life measured up to 12 hrs by HPLC analysis; type: physicochemical
[12] = Metabolic stability in healthy C57BL/6 mouse plasma assessed as half life measured up to 12 hrs by HPLC analysis; type: ADME, cell-free
[13] = Metabolic stability in healthy C57BL/6 mouse colonic flora homogenate assessed as half life measured up to 12 hrs by HPLC analysis; type: ADME
[14] = Metabolic stability in healthy C57BL/6 mouse jejunum assessed as half life measured up to 12 hrs by HPLC analysis; type: ADME, tissue-based
[15] = Metabolic stability in DSS-induced C57BL/6 inflammatory mouse model colonic flora homogenate assessed as half life measured up to 12 hrs by HPLC analysis; type: ADME; details: C57BL/6, mouse
Mus musculus [16] = assay: Anti-colitis activity against DSS-induced colitis in C57BL/6 mouse model assessed as assessed as recovery of body weight at 25 mg/kg, po administered via gavage twice daily for 10 days; type: functional, organism-based; details: time 10.0 day
[17] = Stability in human Caco-2 cells homogenate assessed as half life measured up to 12 hrs by HPLC analysis; type: ADME, cell-based; details: Caco-2 cell homogenate
[18] = Tmax in DSS-induced colitis C57BL/6 mouse model at 25 mg/kg, po measured up to 6 hrs by UPLC-MS/MS analysis; type: ADME, organism-based; details: in vivo
[19] = Stability in simulated gastric fluid at pH 1.2 assessed as half life measured up to 12 hrs by HPLC analysis; type: ADME
[20] = Stability in simulated intestinal fluid at pH 6.8 assessed as half life measured up to 12 hrs by HPLC analysis; type: ADME
[21] = Cmax in DSS-induced colitis C57BL/6 mouse model at 25 mg/kg, po measured up to 6 hrs by UPLC-MS/MS analysis; type: ADME, organism-based; parameters: route oral, dose 25 mg/kg, time <=6; details: in vivo
[22] = biological target: T2, Solute carrier family 15 member 1 (Rattus norvegicus, UniProt P51574); assay: Substrate activity in PEPT1 in Sprague-Dawley rat jejunum assessed as fold increase in effective permeability at 5 mM measured up to 60 mins in presence of Gly-Sar by HPLC analysis relative to its enantiomers; type: ADME, tissue-based; details: 1 h, 5000 µM
T2 sequence (P51574 whole entry): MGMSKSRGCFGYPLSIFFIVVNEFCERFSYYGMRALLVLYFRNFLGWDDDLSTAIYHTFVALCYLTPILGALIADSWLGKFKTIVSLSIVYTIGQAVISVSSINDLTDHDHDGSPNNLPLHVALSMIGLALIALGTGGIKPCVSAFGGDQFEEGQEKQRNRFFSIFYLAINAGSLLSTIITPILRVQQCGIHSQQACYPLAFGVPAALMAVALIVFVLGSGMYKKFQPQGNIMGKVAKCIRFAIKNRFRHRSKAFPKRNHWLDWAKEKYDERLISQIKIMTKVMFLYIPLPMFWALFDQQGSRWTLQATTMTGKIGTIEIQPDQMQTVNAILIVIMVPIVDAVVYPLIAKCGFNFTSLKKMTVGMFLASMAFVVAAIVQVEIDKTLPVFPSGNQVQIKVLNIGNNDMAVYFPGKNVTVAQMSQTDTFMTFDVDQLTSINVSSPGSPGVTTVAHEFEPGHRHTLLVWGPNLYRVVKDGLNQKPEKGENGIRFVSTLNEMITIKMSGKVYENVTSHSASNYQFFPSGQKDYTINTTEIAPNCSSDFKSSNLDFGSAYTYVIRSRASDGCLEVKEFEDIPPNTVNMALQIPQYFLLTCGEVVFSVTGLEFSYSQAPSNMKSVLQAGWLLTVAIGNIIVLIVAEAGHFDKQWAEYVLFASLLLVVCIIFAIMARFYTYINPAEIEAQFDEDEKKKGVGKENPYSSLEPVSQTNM

[23] = biological target: T1, Solute carrier family 15 member 1; assay: Substrate activity at PEPT1 in human Caco-2 cells assessed as fold reduction in drug uptake in presence of Gly-Sar by UPLC-MS/MS analysis relative to its enantiomers; type: ADME, cell-based
[24] = biological target: T1, Solute carrier family 15 member 1; assay: Substrate activity at PEPT1 in human Caco-2 cells assessed as fold increase in drug uptake by UPLC-MS/MS analysis relative to its enantiomers; type: ADME, cell-based
Jejunum = assay: Effective permeability in Sprague-Dawley rat jejunum assessed as fold increase in permeability at 5 mM measured up to 60 mins by HPLC analysis relative to its enantiomers; type: ADME, tissue-based; details: 1 h, 5000 µM
Mus musculus [25] = assay: Anti-colitis activity against DSS-induced colitis in C57BL/6 mouse model assessed as fold decrease in disease activity index at 25 mg/kg, po administered via gavage twice daily for 10 days relative to control; type: functional; details: time 10 day
[26] = Apparent permeability across apical to basolateral side in human Caco-2 cells assessed as fold increase in permeability at 0.5 mM measured up to 60 mins by UPLC-MS/MS analysis relative to its enantiomers; type: ADME, cell-based; details: caco-2, 1 h, 500 µM

Compound | half-life [3] [h] | half-life [4] [h] | half-life [5] [h] | half-life [6] [h] | half-life [7] [h] | half-life [8] [h] | AUC [9] [microM/L.hr] | half-life [10] [h] | half-life [11] [h] | half-life [12] [h] | half-life [13] [h] | half-life [14] [h] | half-life [15] [h] | half-life [17] [h] | Tmax [18] [h] | half-life [19] [h] | half-life [20] [h] | Cmax [21] [µM] | Activity (Mus musculus [2]) | Activity (Mus musculus [16]) | also measured
O=C(O)[C@H](CO)NC(=O)[C@H]1C[C@@H](O)CN1 | > 12 | > 12 | > 12 | > 12 | > 12 | > 12 | 44.55 | > 12 | > 12 | > 12 | > 12 | > 12 | > 12 | > 12 | 4 | > 12 | > 12 | 22.7 | inactive | inactive | inhibition (INH) [1]: Not Active
O=C(O)[C@H](CO)NC(=O)[C@@H]1C[C@@H](O)CN1 | > 12 | 0.27 | 0.29 | > 12 | > 12 | > 12 | 1.34 | > 12 | > 12 | > 12 | 0.86 | 0.35 | 0.88 | > 12 | 2 | > 12 | > 12 | 0.52 | Active | Active | fold change (FC) [22]: 7.8; IC50 [1]: 5.18 mM; fold change (FC) [23]: 3.4; fold change (FC) [24]: 3.3; fold change (FC) (Jejunum): 7.3; fold change (FC) (Mus musculus [25]): 1.5; fold change (FC) [26]: 6.3
O=C(O)[C@H](CO)NC(=O)[C@@H]1C[C@H](O)CN1 | > 12 | 0.51 | 0.35 | > 12 | > 12 | > 12 | 1.62 | > 12 | > 12 | > 12 | 1.22 | 0.39 | 1.15 | > 12 | 2 | > 12 | > 12 | 1.05 | inactive | inactive | fold change (FC) [22]: 4; IC50 [1]: 9.8 mM; fold change (FC) [23]: 3.4; fold change (FC) [24]: 3.3; fold change (FC) (Jejunum): 7.3; fold change (FC) [26]: 6.3

The next lines start with results.

half-life [3] [h] | half-life [4] [h] | half-life [5] [h] | half-life [6] [h] | half-life [7] [h] | half-life [8] [h] | AUC [9] [microM/L.hr] | half-life [10] [h] | half-life [11] [h] | half-life [12] [h] | half-life [13] [h] | half-life [14] [h] | half-life [15] [h] | half-life [17] [h] | Tmax [18] [h] | half-life [19] [h] | half-life [20] [h] | Cmax [21] [µM] | Compound | Activity (Mus musculus [2]) | Activity (Mus musculus [16]) | also measured
> 12 | > 12 | > 12 | > 12 | > 12 | > 12 | 50.73 | > 12 | > 12 | > 12 | > 12 | > 12 | > 12 | > 12 | 4 | > 12 | > 12 | 22.9 | O=C(O)[C@@H](CO)NC(=O)[C@H]1C[C@H](O)CN1 | Active | Active | inhibition (INH) [1]: Not Active; fold change (FC) [24]: 3.3; fold change (FC) (Mus musculus [25]): 1.5
> 12 | > 12 | > 12 | > 12 | > 12 | > 12 | 8.55 | > 12 | > 12 | > 12 | > 12 | > 12 | > 12 | > 12 | 2 | > 12 | > 12 | 4.01 | O=C(O)[C@H](CO)NC(=O)[C@H]1C[C@H](O)CN1 | inactive | inactive | fold change (FC) [22]: 6.2; IC50 [1]: 9.6 mM; fold change (FC) [23]: 3.4; fold change (FC) [24]: 3.3; fold change (FC) (Jejunum): 7.3; fold change (FC) [26]: 6.3
> 12 | 0.32 | 0.39 | > 12 | > 12 | > 12 | 1.67 | > 12 | > 12 | > 12 | 0.91 | 0.33 | 0.99 | > 12 | 2 | > 12 | > 12 | 0.64 | O=C(N[C@H](CO)C(=O)O)[C@@H]1C[C@@H](O)CN1 | Active | Active | fold change (FC) [22]: 4.6; IC50 [1]: 10.2 mM; fold change (FC) [23]: 3.4; fold change (FC) [24]: 3.3; fold change (FC) (Jejunum): 7.3; fold change (FC) (Mus musculus [25]): 1.5; fold change (FC) [26]: 6.3
> 12 | > 12 | > 12 | > 12 | > 12 | > 12 | 49.92 | > 12 | > 12 | > 12 | > 12 | > 12 | > 12 | > 12 | 4 | > 12 | > 12 | 22.1 | O=C(N[C@H](CO)C(=O)O)[C@@H]1C[C@H](O)CN1 | inactive | inactive | inhibition (INH) [1]: Not Active

Reference: ChEMBL document CHEMBL5046231, “Modulation of Naturally Occurring Linear Dipeptide Chirality to Reduce the Affinity for Oligopeptide Transporter 1 and Increase Intestinal Stability for an Enhanced Colon-Targeting Effect in the Treatment of Inflammatory Bowel Disease: An Application of trans-4-l-Hydroxyprolyl-l-serine” (J Med Chem, 2022)
